# Measured values from publication PMC11648822, “Lactam Truncation Yields a Dihydroquinazolinone Scaffold with Potent Antimalarial Activity that Targets PfATP4” (Chemmedchem, 2024).
# pEC50: −log10 of the molar value. Like-named read-outs stand apart in the source and are kept apart here.
# Assays:
# [1] = biological target: T1, PfATP4 (membranes prepared from 3D7 parasites) (Plasmodium falciparum, UniProt A0A143ZZK9); experiment: PfATP4 Na+ assay (membrane ATPase), 3D7 membranes; type: biochemical, P. falciparum; conditions: 50 nM; any of the conditions tested; negative control
# T1 construct: The membranes were prepared from isolated trophozoite‐stage 3D7 parasites; endogenous in cells; host or cells: P. falciparum 3D7 trophozoites (membrane preparation)
# Description: Figure 4 Dihydroquinazolinone analogs 14 and 36 (WJM062) inhibit Na^+‐ATPase activity in membranes prepared from isolated P. falciparum parasites, consistent with them being PfATP4 inhibitors. (A) The effects of dihydroquinazolinone compounds (2 μM), dihydroartemisinin (DHA; 50 nM; negative control) and 0.2 % v/v DMSO (solvent‐only control) on membrane ATPase activity under high‐[Na^+] conditions (152 mM Na^+) and low‐[Na^+] conditions (2 mM Na^+; stemming from the addition of 1 mM Na2ATP) in the presence and absence of the PfATP4 inhibitor cipargamin (50 nM). The membranes were prepared from isolated trophozoite‐stage 3D7 parasites. The Pi produced is expressed as a percentage of that measured in the 152 mM Na^+ Control. The data are from four independent experiments performed with different membrane preparations; the symbols show the data from individual experiments and the bars show the mean (+SEM). In individual experiments, the Pi produced in the 152 mM Na^+ Control varied from 66 to 96 nmol per mg (total) protein per min. A repeated measures ANOVA with a post hoc Tukey test was used to compare the (pre‐normalised) data for different compounds and conditions. For comparisons between different conditions for the same test compound (or for the Control), significant differences are shown with black asterisks. For comparisons between the Control and a compound under the same test condition, significant differences are shown with coloured asterisks (in this case, grey asterisks, as the only significant differences were between the control and the dihydroquinazolinone compounds in the 152 mM Na^+ condition). ***P<0.001. (B) Concentration‐dependence of the effects of dihydroquinazolinone compounds on PfATP4‐associated ATPase activity in membranes prepared from 3D7 parasites. The data are the mean (shown + or − SEM) obtained from four independent experiments performed with different membrane preparations, with the exception of the lowest and second‐lowest concentrations of the compounds, for which data are from two and three independent experiments, respectively. (C and D) Potency of dihydroquinazolinone compounds against PfATP4‐associated ATPase activity in membranes prepared from Dd2‐Polδ‐PfATP4^G358S parasites (open triangles) and their Dd2‐Polδ parents (closed triangles). The data are the mean (shown + or − SEM) from four (C) or three (D) independent experiments. In B−D, the Pi production measured in the low‐[Na^+] (2 mM) condition was subtracted from that measured in high‐[Na^+] (152 mM) in the presence of each of the different concentrations of dihydroquinazolinone compounds to calculate the PfATP4‐associated ATPase activity. The PfATP4‐associated ATPase activity is expressed as a percentage of that obtained for the high‐[Na^+] (152 mM) Control.
# Membrane ATPase assays were performed using a PiColorLock Gold Phosphate Detection System (Innova Biosciences), essentially as described previously.[25] Membranes were prepared either from isolated 3D7 trophozoites or from isolated Dd2‐Polδ‐PfATP4^G358S [22] and Dd2‐Polδ trophozoites.[26]
# [2] = tested on: P. falciparum Dd2 PfATP4^D425E strain; experiment: 'compound 49' resistant parasite viability assay (LDH), Dd2 D425E; type: cell-based; conditions: Plasmodium falciparum, DD2, 72 h, read-out: Dd2^D425E EC50 (SD)
# Description: (§1) These assays were performed according to a previously described protocol.[16] Briefly, P. falciparum Dd2 strains treated with compound were incubated for 72 h at 37 °C. After incubating for 72 h, plates were frozen at −80 °C and then thawed at room temperature for at least 2 h. LDH activity, a surrogate for parasite growth was measured by the addition of the Malstst reagent mix, followed by incubation for 30 min and absorbance read using a ClarioStar Microplate reader at 650 nm. Values were normalized to DMSO control as a percentage and EC50 and dose response curves generated using GraphPad Prism.
# [3] = tested on: P. falciparum Dd2 PfATP4^triple (I398F, P990R, D1247Y) strain; experiment: PfATP4 drug resistant parasite viability assay (LDH), Dd2 triple; type: cell-based; conditions: Plasmodium falciparum, DD2, 72 h, read-out: Dd2^triple EC50 (SD)
# Description: as §1
# P. falciparum Dd2 = experiment: P. falciparum viability assay (SYBR green), Dd2; type: cell-based; conditions: Plasmodium falciparum, DD2, 72 h, read-out: P. falciparum parental EC50 (SD) Dd2
# Description: (§2) These assays were performed as previously described.[16] P. falciparum 3D7 parasites and resistant lines Dd2, W2mef, 7G8, and artemisinin‐resistant Cambodian isolate (Cam3.I (2539T)), and P. knowlesi YH1, were cultured in human O^+ erythrocytes (RBCs) (Australian Red Cross Blood Service), in RPMI‐HEPES culture medium (pH 7.4, 50 μg/mL hypoxanthine, 25 mM NaHCO3, 20 μg/mL gentamicin, 0.5 % Albumax II (GibcoBRL)) (Thermo Fisher Scientific) and maintained in an atmosphere of 1 % O2, 4 % CO2 and 95 % N2. Parasites were synchronised with 5 % (w/v) sorbitol (Sigma‐Aldrich) treatments for ring stages. Growth assays for measuring drug inhibition of in‐cycle, ring to schizont stage parasites have been described previously. Parasites were grown in 1 % haematocrit, at 1 % and 2 % parasitaemia for P. falciparum and P. knowlesi respectively. […] Parasitaemia was measured using a SYBR DNA staining assay on a fluorometer.[33] After the incubation period, supernatants were removed and well contents were resuspended in PBS.
# P. falciparum 7G8 = experiment: Multidrug-resistant parasite viability assay (SYBR green), 7G8; type: cell-based; conditions: Plasmodium falciparum, 7G8, 72 h, read-out: multidrug resistant P. falciparum strains EC50 (SD) 7G8
# Description: as §2
# P. falciparum CAM3.1 = experiment: Multidrug-resistant parasite viability assay (SYBR green), CAM3.1; type: cell-based; conditions: Plasmodium falciparum, 72 h, read-out: multidrug resistant P. falciparum strains EC50 (SD) CAM3.1
# Description: as §2
# [4] = tested on: P. falciparum (Pf) 3D7 parasites; experiment: P. falciparum LDH viability assay; type: cell-based; conditions: Plasmodium falciparum, 3D7, 72 h, LDH activity at 72 h; mean and SD of 3 independent experiments
# Source text: This assay is a platform assay conducted at the Walter and Eliza Hall Institute and uses a protocol previously decsribed.[30, 31]
# P. falciparum W2^mef = experiment: Multidrug-resistant parasite viability assay (SYBR green), W2mef; type: cell-based; conditions: Plasmodium falciparum, W2, 72 h, read-out: multidrug resistant P. falciparum strains EC50 (SD) W2^mef
# Description: as §2
# [5] = tested on: P. knowlesi YH1 parasites; experiment: P. knowlesi viability assay (SYBR green); type: cell-based; conditions: Plasmodium knowlesi, 48 h, read-out: P. knowlesi EC50 (SD) YH1
# Description: (§3) These assays were performed as previously described.[16] […] Parasites were synchronised with 5 % (w/v) sorbitol (Sigma‐Aldrich) treatments for ring stages. […] Parasites were grown in 1 % haematocrit, at 1 % and 2 % parasitaemia for P. falciparum and P. knowlesi respectively. […] Parasitaemia was measured using a SYBR DNA staining assay on a fluorometer.[33] After the incubation period, supernatants were removed and well contents were resuspended in PBS.
# [6] = tested on: P. falciparum Dd2 PfATP4^F156L strain; experiment: 'compound 49' resistant parasite viability assay (LDH), Dd2 F156L; type: cell-based; conditions: Plasmodium falciparum, DD2, 72 h, read-out: Dd2^F156L EC50 (SD)
# Description: as §1
# [7] = Human HepG2 cytotoxicity assay (Cell Titre Glo); type: cell-based; conditions: HepG2 cells, growth inhibition at 48 h, 4 replicate experiments, read-out: HepG2 CC50 (SD)
# Source text: This assay uses Cell TitreGlo as a metabolic maker for human HepG2 cell growth and uses a protocol previously described.[32]
# [8] = tested on: P. falciparum Dd2 parental strain; experiment: PfATP4 drug resistant parasite viability assay (LDH), Dd2 parental; type: cell-based; conditions: Plasmodium falciparum, DD2, 72 h, read-out: Dd2^parental EC50 (SD)
# Description: as §1
# [9] = tested on: P. falciparum Dd2 PfATP4^G358S strain; experiment: PfATP4 drug resistant parasite viability assay (LDH), Dd2 G358S; type: cell-based; conditions: Plasmodium falciparum, DD2, 72 h, read-out: Dd2^G358S EC50 (SD)
# Description: as §1
# [10] = tested on: P. falciparum 3D7 parasites; experiment: P. falciparum viability assay (SYBR green), 3D7; type: cell-based; conditions: Plasmodium falciparum, 3D7; SYBR green, 72 h; read-out: P. falciparum parental EC50 (SD) 3D7
# Description: as §3
# [11] = tested on: P. falciparum Dd2 strain with 2.8-fold amplification in PfATP4; experiment: 'compound 49' resistant parasite viability assay (LDH), Dd2 2.8 CNV; type: cell-based; conditions: Plasmodium falciparum, DD2, 72 h, read-out: Dd2^2.8 CNV EC50 (SD)
# Description: as §1
# P. berghei ANKA = experiment: P. berghei 4-day mouse model; type: in vivo; conditions: 30 mg/kg p.o. q.d.
# Description: In this model, mice are infected with P. berghei ANKA asexual blood stage parasites. Compounds are then administered by oral gavage at 20 mg/kg 2, 24, 48, and 72 hours after the parasite infection.
# Each day, a fresh aliquot of the compound stock was diluted 1/10 in water for administration to mice. 8 week old female mice (Ozgene) on day 0 were infected with 2×10^7 P. berghei ANKA‐infected erythrocytes. […] 2 mice were also dosed with artesunate using the same regime at 30 mg/kg. The parasitemia of mice was assessed by visualizing Giemsa‐stained thin blood smears by microscopy and a minimum of 1000 RBCs were counted. To calculate the percent antimalarial activity the following formula was used: 100 ‐ (mean parasitemia treated day 4 post‐infection/mean parasitemia vehicle control day 4 post‐infection)×100. Mice were culled the day following the last oral gavage.
# Briefly, ‘donor’ female Swiss mice were infected intraperitoneally (IP) with blood stage P. berghei parasites constitutively expressing GFP (P. berghei ANKA GFPcon 259cl2).[36] Three days later, groups of 3 ‘acceptor’ Swiss mice were infected intravenously with 1 x 10^7 parasitised red blood cells from the ‘donor mice’. […] Control mice were left untreated. Peripheral blood samples were taken 24 h after administration of the last dose, and parasitemia was measured by flow cytometry (proportion of GFP‐positive cells in 100,000 recorded events using Attune Nxt, ThermoFisher) and microscopic analysis of Giemsa‐stained blood smears. Parasitemia values were averages of 3 mice per group.
# [12] = tested on: P. falciparum (Pf) 3D7 parasites; set-up: method as in PMID 36812492, PMID 39134060; conditions: Figure 1; cited from earlier work
# [13] = Figure 1; cited from earlier work
# [14] = set-up: method as in PMID 39134060; conditions: 25 mg/kg oral dose, 4-day model; recrudescence detected after day 4; cited from earlier work
# [15] = tested on: P. falciparum Dd2 PfATP4^G358S strain; set-up: method as in Ashton, Dans et al. 10; conditions: ref Ashton, Dans et al. 10; cited from earlier work
# [16] = tested on: P. falciparum Dd2 parental strain; set-up: method as in Ashton, Dans et al. 10; conditions: LDH at 72 h; ref Ashton, Dans et al. 10; cited from earlier work
# [17] = tested on: P. falciparum Dd2 PfATP4^triple (I398F, P990R, D1247Y) strain; set-up: method as in Ashton, Dans et al. 10; conditions: ref Ashton, Dans et al. 10; cited from earlier work
# T1 sequence (A0A143ZZK9 whole entry): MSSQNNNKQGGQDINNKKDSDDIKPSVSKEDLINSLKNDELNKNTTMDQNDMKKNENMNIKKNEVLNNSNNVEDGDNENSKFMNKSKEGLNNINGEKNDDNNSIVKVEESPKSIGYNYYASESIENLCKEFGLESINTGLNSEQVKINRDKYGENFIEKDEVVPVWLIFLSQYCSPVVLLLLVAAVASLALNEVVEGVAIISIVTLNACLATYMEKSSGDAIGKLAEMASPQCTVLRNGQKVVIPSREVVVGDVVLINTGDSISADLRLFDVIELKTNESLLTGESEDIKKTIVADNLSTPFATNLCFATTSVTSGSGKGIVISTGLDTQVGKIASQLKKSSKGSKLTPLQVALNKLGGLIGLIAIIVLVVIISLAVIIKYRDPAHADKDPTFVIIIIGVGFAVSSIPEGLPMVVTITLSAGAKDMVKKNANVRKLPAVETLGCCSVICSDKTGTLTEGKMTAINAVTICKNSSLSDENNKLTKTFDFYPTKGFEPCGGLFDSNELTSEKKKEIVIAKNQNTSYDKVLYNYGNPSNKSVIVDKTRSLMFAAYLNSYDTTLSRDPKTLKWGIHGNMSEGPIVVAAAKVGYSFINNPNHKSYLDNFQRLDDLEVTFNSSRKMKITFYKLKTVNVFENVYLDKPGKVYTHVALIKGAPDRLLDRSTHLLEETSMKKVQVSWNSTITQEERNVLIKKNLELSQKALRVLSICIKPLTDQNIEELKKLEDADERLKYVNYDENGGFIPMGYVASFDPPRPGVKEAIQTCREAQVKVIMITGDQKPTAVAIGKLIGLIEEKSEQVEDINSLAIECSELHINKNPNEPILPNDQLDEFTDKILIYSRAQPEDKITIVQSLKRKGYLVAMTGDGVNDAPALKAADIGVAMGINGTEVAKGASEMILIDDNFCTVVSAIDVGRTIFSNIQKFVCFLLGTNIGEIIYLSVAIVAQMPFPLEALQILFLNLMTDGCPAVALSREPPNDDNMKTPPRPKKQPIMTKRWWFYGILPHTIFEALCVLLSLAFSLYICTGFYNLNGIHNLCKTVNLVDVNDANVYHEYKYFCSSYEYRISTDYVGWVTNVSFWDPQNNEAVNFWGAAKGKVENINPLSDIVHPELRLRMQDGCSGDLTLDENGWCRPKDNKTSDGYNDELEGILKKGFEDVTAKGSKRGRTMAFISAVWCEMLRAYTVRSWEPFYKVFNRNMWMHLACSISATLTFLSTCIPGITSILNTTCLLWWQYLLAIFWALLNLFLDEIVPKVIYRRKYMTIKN
smiles,measurement,setting,value
"C[C@H]1[C@@H](O)O[C@@H]2O[C@@]3(C)CC[C@H]4[C@H](C)CC[C@@H]1[C@@]24OO3 [dihydroartemisinin, reference compound]",effect on membrane ATPase activity,[1],no effect
"CN1C(=O)c2ccc(Cl)cc2NC1(C)C(=O)Nc1cccc(Cl)c1 (centres unmarked) [Compound 11, 7‐Chloro‐N‐(3‐chlorophenyl)‐2,3‐dimethyl‐4‐oxo‐1,2,3,4‐tetrahydroquinazoline‐2‐carboxamide]",pEC50,[2],7.44
same,pEC50,[3],6.85
same,pEC50,P. falciparum Dd2,7.77
same,pEC50,P. falciparum 7G8,7.48
same,pEC50,P. falciparum CAM3.1,7.89
same,pEC50,[4],7.74
same,pEC50,P. falciparum W2^mef,8.05
same,pEC50,[5],7.19
same,pEC50,[6],7.39
same,CC50 at 48 h,[7],> 40000 nM
same,pEC50,[8],7.68
same,pEC50,[9],7.36
same,pEC50,[10],7.85
same,pEC50,[11],7.40
"C[C@H]1[C@H](OC(=O)CCC(=O)O)O[C@@H]2O[C@@]3(C)CC[C@H]4[C@H](C)CC[C@@H]1[C@@]24OO3 [artesunate, reference compound]",% parasitemia,P. berghei ANKA; day 4,0.66%
same,% reduction in parasitemia,"P. berghei ANKA; day 4, versus control",96%
CN1C(=O)c2c(F)cc(-c3cnn(C)c3)cc2N2C(=O)CCC12C(=O)Nc1cncc(Cl)c1 (centres unmarked) [S-WJM992 (5)],pEC50,[12],8.10
same,Rat hepatocytes CLint,[13],14 μL/min/10^6 cells
same,effect on parasitemia,[14],cleared parasitemia
"N#Cc1cc(NC(=O)[C@H]2c3ccccc3C(=O)N(CC(F)(F)F)[C@@H]2c2cccnc2)ccc1F [SJ733, reference compound]",pEC50,[2],7.10
same,pEC50,[6],6.87
same,pEC50,[15],< 4.96
same,pEC50,[11],6.89
same,pEC50,[16],7.17
"C[C@H]1Cc2c([nH]c3cc(Cl)c(F)cc23)[C@@]2(N1)C(=O)Nc1ccc(Cl)cc12 [KAE609, reference compound]",pEC50,[2],8.70
same,pEC50,[6],8.40
same,pEC50,[17],8.05
same,pEC50,[11],8.52
